Target: human adenosine A2b receptor (Homo sapiens (Human), UniProt P29275)
Assay: Cellular in vitro reporter gene test for A2b receptor activity (CHO-K1, CRE-luciferase, NECA stimulation)
Assay type: cell-based
Conditions: recombinant CHO-K1 cell line, CRE-luciferase reporter, antagonism of EC50 concentration of NECA; in some cases means of several determinations, rounded to two significant figures; read-out: A2b receptor IC50
In short: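 CHO-K1 cells with CRE-driven luciferase; antagonists co-incubated with NECA at its EC50, determined in a pre-experiment on each test day. Luciferase read by luminescence 3 h after NECA addition.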

Chain of human adenosine A2b receptor (P29275 whole entry): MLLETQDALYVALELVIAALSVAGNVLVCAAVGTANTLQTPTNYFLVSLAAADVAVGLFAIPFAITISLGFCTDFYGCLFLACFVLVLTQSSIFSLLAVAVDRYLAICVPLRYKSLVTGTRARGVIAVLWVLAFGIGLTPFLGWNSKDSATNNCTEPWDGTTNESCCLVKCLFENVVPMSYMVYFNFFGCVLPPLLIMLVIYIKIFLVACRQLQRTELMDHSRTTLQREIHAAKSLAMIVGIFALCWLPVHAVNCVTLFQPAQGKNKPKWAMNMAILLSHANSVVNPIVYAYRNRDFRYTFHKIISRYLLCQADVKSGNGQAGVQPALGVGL

IC50 [nM]	Structure (SMILES)
21	CCn1c(=O)c2c(C)c(CN3CCNC3=O)sc2n(CCOC2CC2)c1=O [Example 178, 1-[2-(Cyclopropyloxy)ethyl]-3-ethyl-5-methyl-6-[(2-oxoimidazolidin-1-yl)methyl]thieno[2,3-d]pyrimidine-2,4(1H,3H)-dione]
8.1	CCn1c(=O)c2c(C)c(CN3CCNC3=O)sc2n(CF)c1=O [Example 307, 3-Ethyl-1-(fluoromethyl)-5-methyl-6-[(2-oxoimidazolidin-1-yl)methyl]thieno[2,3-d]pyrimidine-2,4(1H,3H)-dione]
79	CCn1c(=O)c2c(C)c(C(C)N3CCNC3=O)sc2n(CCC(F)(F)F)c1=O (racemic) [Example 416, 3-Ethyl-5-methyl-6-[1-(2-oxoimidazolidin-1-yl)ethyl]-1-(3,3,3-trifluoropropyl)thieno[2,3-d]pyrimidine-2,4(1H,3H)-dione]
120	CCn1c(=O)c2c(C)c(CN3CCNC3=S)sc2n(CCOC2CCCC2)c1=O [Example 293, 1-[2-(Cyclopentyloxy)ethyl]-3-ethyl-5-methyl-6-[(2-thioxoimidazolidin-1-yl)methyl]thieno[2,3-d]pyrimidine-2,4(1H,3H)-dione]
71	CCn1c(=O)c2c(C)c(Cn3nc[nH]c3=O)sc2n(CC2CCCO2)c1=O (single isomer, unassigned) [Example 421, 3-Ethyl-5-methyl-6-[(5-oxo-4,5-dihydro-1H-1,2,4-triazol-1-yl)methyl]-1-(tetrahydrofuran-2-ylmethyl)thieno[2,3-d]pyrimidine-2,4(1H,3H)-dione]
8.4	COCCn1c(=O)n(CCc2ccccc2)c(=O)c2c(C(F)(F)F)c(CN3CCCC3=O)sc21 [Example 5, 1-(2-Methoxyethyl)-6-[(2-oxopyrrolidin-1-yl)methyl]-3-(2-phenylethyl)-5-(trifluoromethyl)thieno[2,3-d]pyrimidine-2,4(1H,3H)-dione]
82	COC(C)(C)Cn1c(=O)c2c(C)c(CN3CCNC(=O)C3=O)sc2n(CCCF)c1=O [Example 280, 6-[(2,3-Dioxopiperazin-1-yl)methyl]-1-(3-fluoropropyl)-3-(2-methoxy-2-methylpropyl)-5-methylthieno[2,3-d]pyrimidine-2,4(1H,3H)-dione]
99	CCCn1cnn(Cc2sc3c(c2C)c(=O)n(CC)c(=O)n3CCC(F)(F)F)c1=O [Example 355, 3-Ethyl-5-methyl-6-[(5-oxo-4-propyl-4,5-dihydro-1H-H-1,2,4-triazol-1-yl)methyl]-1-(3,3,3-trifluoropropyl)thieno[2,3-d]pyrimidine-2,4(1H,3H)-dione]
4.3	C#CCn1c(=O)c2c(C)c(CN3CCNC3=O)sc2n(CCOC)c1=O [Example 315, 1-(2-Methoxyethyl)-5-methyl-6-[(2-oxoimidazolidin-1-yl)methyl]-3-(prop-2-yn-1-yl)thieno[2,3-d]pyrimidine-2,4(1H,3H)-dione]
9.4	COCCn1c(=O)c2c(C)c(CN3CCNC3=NC#N)sc2n(CCC(F)(F)F)c1=O [Example 362, [1-{[3-(2-Methoxyethyl)-5-methyl-2,4-dioxo-1-(3,3,3-trifluoropropyl)-1,2,3,4-tetrahydrothieno[2,3-d]pyrimidin-6-yl]methyl}imidazolidin-2-ylidene]cyanamide]
210	C=CCn1cnn(Cc2sc3c(c2C)c(=O)n(CC)c(=O)n3CCCF)c1=O [Example 350, 6-[(4-Allyl-5-oxo-4,5-dihydro-1H-1,2,4-triazol-1-yl)methyl]-3-ethyl-1-(3-fluoropropyl)-5-methylthieno[2,3-d]pyrimidine-2,4(1H,3H)-dione]
7	CCn1c(=O)c2c(C)c(CN3C(=O)CCC3C)sc2n(CCC(F)(F)F)c1=O (racemic) [Example 10, 3-Ethyl-5-methyl-6-[(2-methyl-5-oxopyrrolidin-1-yl)methyl]-1-(3,3,3-trifluoropropyl)thieno[2,3-d]pyrimidine-2,4(1H,3H)-dione (racemate)]
5.2	CCn1c(=O)c2c(C(F)F)c(CN3CCNC3=S)sc2n(CCC(F)(F)F)c1=O [Example 44, 5-(Difluoromethyl)-3-ethyl-6-[(2-thioxoimidazolidin-1-yl)methyl]-1-(3,3,3-trifluoropropyl)thieno[2,3-d]pyrimidine-2,4(1H,3H)-dione]
6.4	CCOCCn1c(=O)n(CC(F)(F)F)c(=O)c2c(C)c(CN3CCNC3=S)sc21 [Example 153, 1-(2-Ethoxyethyl)-5-methyl-6-[(2-thioxoimidazolidin-1-yl)methyl]-3-(2,2,2-trifluoroethyl)thieno[2,3-d]pyrimidine-2,4(1H,3H)-dione]
36	CCOCCn1c(=O)n(CCOC)c(=O)c2c(C)c(CN3CCNC3=S)sc21 [Example 169, 1-(2-Ethoxyethyl)-3-(2-methoxyethyl)-5-methyl-6-[(2-thioxoimidazolidin-1-yl)methyl]thieno[2,3-d]pyrimidine-2,4(1H,3H)-dione]
5.3	COCCn1c(=O)n(C(C)C)c(=O)c2c(C)c(CN3CCNC3=NC#N)sc21 [Example 263, [1-{[3-Isoprpy-1-(2-methoxyethyl)-5-methyl-2,4-dioxo-1,2,3,4-tetrahydrothieno[2,3-d]pyrimidin-6-yl]methyl}imidazolidin-2-ylidene]cyanamide]
12	CCn1c(=O)c2c(C)c(CN3CCNC3=O)sc2n(CCCF)c1=O [Example 51, 3-Ethyl-1-(3-fluoropropyl)-5-methyl-6-[(2-oxoimidazolidin-1-yl)methyl]thieno[2,3-d]pyrimidine-2,4(1H,3H)-dione]
4.6	CCn1c(=O)c2c(C)c(CN3CCNC3=O)sc2n(CCF)c1=O [Example 50, 3-Ethyl-1-(2-fluoroethyl)-5-methyl-6-[(2-oxoimidazolidin-1-yl)methyl]thieno[2,3-d]pyrimidine-2,4(1H,3H)-dione]
33	CCn1c(=O)c2c(C)c(CN3CC[C@@H](O)C3=O)sc2n(CCOC)c1=O [Example 7, 3-Ethyl-6-{[(3R)-3-hydroxy-2-oxopyrrolidin-1-yl]methyl}-1-(2-methoxyethyl)-5-methylthieno[2,3-d]pyrimidine-2,4(1H,3H)-dione]
7.9	Cc1c(CN2CCNC2=S)sc2c1c(=O)n(CC(F)F)c(=O)n2CC1CCCO1 (racemic) [Example 162, 3-(2,2-Difluoroethyl)-5-methyl-1-(tetrahydrofuran-2-ylmethyl)-6-[(2-thioxoimidazolidin-1-yl)methyl]thieno[2,3-d]pyrimidine-2,4(1H,3H)-dione]
22	Cc1c(CN2CCNC2=O)sc2c1c(=O)n(CC(F)F)c(=O)n2CC1CCO1 (single isomer, unassigned) [Example 218, 3-(2,2-Difluoroethyl)-5-methyl-1-(oxetan-2-ylmethyl)-6-[(2-oxoimidazolidin-1-yl)methyl]thieno[2,3-d]pyrimidine-2,4(1H,3H)-dione]
19	Cc1c(CN2CCNC2=NC#N)sc2c1c(=O)n(CC(C)(C)C)c(=O)n2CC1CCCO1 (racemic) [Example 446, [1-{[3-(2,2-Dimethylpropyl)-5-methyl-2,4-dioxo-1-(tetrahydrofuran-2-ylmethyl)-1,2,3,4-tetrahydrothieno[2,3-d]pyrimidin-6-yl]methyl}imidazolidin-2-ylidene]cyanamide]
8.1	Cc1c(CN2CCNC2=O)sc2c1c(=O)n(CC(C)C)c(=O)n2CC1COC1 [Example 199, 3-Isobutyl-5-methyl-1-(oxetan-3-ylmethyl)-6-[(2-oxoimidazolidin-1-yl)methyl]thieno[2,3-d]pyrimidine-2,4(1H,3H)-dione]
32	Cc1c(CN2CCNC2=NC#N)sc2c1c(=O)n(C(C)C)c(=O)n2CC1CCCO1 (single isomer, unassigned) [Example 357, [1-{[3-Isopropyl-5-methyl-2,4-dioxo-1-(tetrahydrofuran-2-ylmethyl)-1,2,3,4-tetrahydrothieno[2,3-d]pyrimidin-6-yl]methyl}imidazolidin-2-ylidene]cyanamide]
13	Cc1c(CN2CCNC2=O)sc2c1c(=O)n(C(C)C)c(=O)n2CC1CCCO1 (racemic) [Example 186, 3-Isopropyl-5-methyl-6-[(2-oxoimidazolidin-1-yl)methyl]-1-(tetrahydrofuran-2-ylmethyl)thieno[2,3-d]pyrimidine-2,4(1H,3H)-dione]
270	CCn1c(=O)c2c(C)c(CN3CCNC(=O)C3=O)sc2n(CC2CCCO2)c1=O (single isomer, unassigned) [Example 477, 6-[(2,3-Dioxopiperazin-1-yl)methyl]-3-ethyl-5-methyl-1-(tetrahydrofuran-2-ylmethyl)thieno[2,3-d]pyrimidine-2,4(1H,3H)-dione]
8.3	CCn1c(=O)c2c(C)c(CN3CCNC3=S)sc2n(CF)c1=O [Example 292, 3-Ethyl-1-(fluoromethyl)-5-methyl-6-[(2-thioxoimidazolidin-1-yl)methyl]thieno[2,3-d]pyrimidine-2,4(1H,3H)-dione]
20	COC(C)(C)Cn1c(=O)c2c(C)c(CN3CCNC(=O)C3=O)sc2n(CCC(F)(F)F)c1=O [Example 279, 6-[(2,3-Dioxopiperazin-1-yl)methyl]-3-(2-methoxy-2-methylpropyl)-5-methyl-1-(3,3,3-trifluoropropyl)thieno[2,3-d]pyrimidine-2,4(1H,3H)-dione]
40	CCn1c(=O)c2c(C)c(CN3CCNC3=O)sc2n(CC2CCOC2)c1=O (single isomer, unassigned; enantiomer 2) [Example 75, 3-Ethyl-5-methyl-6-[(2-oxoimidazolidin-1-yl)methyl]-1-(tetrahydrofuran-3-ylmethyl)thieno[2,3-d]pyrimidine-2,4(1H,3H)-dione (Enantiomer 2)]
8.4	[2H]C([2H])(c1sc2c(c1C)c(=O)n(CC(F)(F)F)c(=O)n2CCOC)N1CCNC1=NC#N [Example 513, [1-{[1-(2-Methoxyethyl)-5-methyl-2,4-dioxo-3-(2,2,2-trifluoroethyl)-1,2,3,4-tetrahydrothieno[2,3-d]pyrimidin-6-yl](dideutero)methyl}imidazolidin-2-ylidene]cyanamide]

From US10428083B2, “Heterocyclylmethyl-thienouracile as antagonists of the adenosine-A2B-receptor” (BAYER PHARMA AKTIENGESELLSCHAFT, priority 2015, dated 2019)
